Patent US6916805B2, “Quinoxalinones as serine protease inhibitors” (Warner-Lambert Company LLC, priority 1998, dated 2005)

Assays:
[1] = target: T1, human thrombin (Homo sapiens, UniProt P00734); experiment: Thrombin IC50, cleavage of Chromozym TH; format: biochemical
T1 construct: purchased Enzyme Research Laboratories
Method: The ability of compounds to act as inhibitors of human thrombin catalytic activity is assessed by determination of that concentration of test substance that inhibits by 50% (IC50) the ability of human thrombin to cleave the chromogenic substrate Chromozym TH (Tosyl-Gly-Pro-Arg-pNA*Ac, Boehringer Mannheim). Typically, 145 μL human thrombin (0.75 nM, Enzyme Research Laboratories) in a HPB buffer (10 mM HEPES, 100 mM NaCl, 0.05% BSA, 0.1% PEG-8000, pH 7.4) and 5 μL of test substance in DMSO (2% final) are incubated for 60 minutes at room temperature. Following preheating to 37° C. for 5 minutes, to this mixture is added 100 μL of Chromozym TH in HPB buffer. The velocity of Chromozym TH hydrolysis is determined at 37° C. by measuring the initial rate of change of the optical density at OD405 nm every 10 seconds for 5 minutes using a ThermoMax® Kinetic Microplate Reader.

[2] = target: T2, human prothrombinase (PTase) complex (Homo sapiens, UniProt P00742); experiment: In vitro assay for human prothrombinase; format: biochemical; conditions: PTase activity expressed by thrombin activity
T2 construct: 2.5 pM human factor Xa (Enzyme Research Laboratories); purchased Enzyme Research Laboratories
Method: For determination of IC50 (PTase) of the compounds of the invention, PTase activity was expressed by thrombin activity.
PTase reaction was performed in 100 μL of mixture containing PTase (20 μM) PCPS (Avanti Polar Lipids following a procedure modified from Barenholz et al., Biochemistry, 1977;16:2806-2810) in a 30:70 ratio, 2.5 nM human factor Va (Enzyme Research Laboratories), and 2.5 pM human factor Xa (Enzyme Research Laboratories) in modified HEPES buffer (10 mM Hepes, 150 mM NaCl, 0.1% PEG-8000, 0.05% BSA, 2.5 mM CaCl2, pH 7.4), 3 μM human prothrombin (Enzyme Research Laboratories) and varied concentrations of the test compounds (1 nM to 100 μM in DMSO, 2% final). Reaction was started by co-incubating PTase with test compound for 60 minutes at room temperature, followed by addition of prothrombin for 6 minutes at room temperature. Next, the reaction was quenched by the addition of 100 μL of 20 mM EDTA. Activity of the thrombin (product) is then measured in the presence of 50 μL S2238 (250 μM final, H-D-Phe-Pip-Arg-pNA*Ac, DiaPharma) as substrate by measuring the change at 37° C. in OD405 nm for 5 minutes at 10 second intervals using a ThermoMax® Kinetic Microplate Reader.

[3] = tested on: human trypsin; experiment: Trypsin IC50, cleavage of S2222; format: biochemical
Method: The ability of compounds to act as inhibitors of human trypsin catalytic activity is assessed by determination of that concentration of test substance that inhibits by 50% (IC50) the ability of human trypsin to cleave the chromogenic substrate S2222 (N-Bz-L-Ile-L-Glu-L-Gly-L-Arg-p-nitroanilide. HCl, DiaPharma). Typically, 145 μL human trypsin (0.5 nM final) in 10 mM HEPES, 150 mM NaCl, 0.1% BSA, and 5 μL of the test substance in DMSO (2% final) are incubated for 60 minutes at room temperature. Following preheating to 37° C. for 5 minutes, to this mixture is added 100 μL of S2222 in HBSA buffer (100 μM final), and the velocity of S2222 hydrolysis is determined at 37° C. by measuring the optical density at OD405 nm every 10 seconds over 5 minutes using a ThermoMax® Kinetic Microplate Reader.

[4] = tested on: dog electrolytic injury model of thrombosis; experiment: Dog electrolytic injury model of thrombosis; format: in vivo
Text: The effects of Example 2 on thrombosis and hemostasis has been studied in a dog electrolytic injury model of thrombosis. In this model, the thrombosis influencing event is an electrical current is applied to the femoral vein (or artery) by applying an anodal direct current (300 uA) to the intimal surface of the vessel in the presence of restricted blood flow (Goldblatt clamps placed around the vessel). The end points of the experiment are the time to occlusion (TTO) and thrombus weight. […] In the highest dose group, TTO was increased to near maximal effect of 240 minutes in both arteries and veins. The net thrombus weight was reduced from 50 mg to 18 mg [artery] and 110 mg to 15 mg [vein] in the highest dose group. Example 2, at the highest dose, prolonged aPTT, PT, by 1.4-, and 1.75-fold, respectively.

[5] = tested on: pooled plasma from human volunteers; experiment: In vitro diluted prothrombin time (dPT) assay; format: biochemical
Method: Rat, rabbit, dog, and human blood (typically 1.8 mL) was collected and added to a sodium citrate solution (3.8%) to afford a 1:10 dilution. After centrifugation (2000 g for 10 minutes), the blood plasma was stored at −70° C. to 0° C. Conventional prothrombin time (PT) tests were carried out in the presence of various concentrations of test compound and the concentration of test compound required to double the clotting time determined. Typically, the test compound (50 μL volume of varying concentrations 0.1 μM to 1000 μM) and blood plasma (100 μL volume) were incubated at 37° C. for 10 minutes, and then tissue thromboplastin, typically Neoplastine from American Bioproducts, with calcium was added. Fibrin formation and the time required for a clot to form were determined using an automated ST4 Clot Detection System in duplicate.
The effects of Example 2 on dPT were evaluated using pooled plasma from human volunteers.

[6] = tested on: rabbit veno-venous shunt model of thrombosis; experiment: Rabbit veno-venous shunt model of thrombosis; format: in vivo
Method: The effects of Example 2 on thrombosis and hemostasis has been studied in a rabbit veno-venous shunt model of thrombosis. In that model, a plastic shunt which contains cotton thread was inserted into abdominal vena cava and thrombus developed inside the shunt under control conditions. The end points of the experiment are the time to occlusion (TTO) and thrombus weight. Example 2 was given to the rabbit via jugular vein as a single bolus followed by constant infusion for 140 minutes. Three doses have been tested in a total of 15 rabbits (5 rabbits in each group): 30 μg/kg+1 μg/kg/min, 60 μg/kg+2 μg/kg/min, and 480 μg/kg+16 μg/kg/min. […] In the highest dose group, TTO was increased from 17 minutes under control condition to 100 minutes. The net thrombus weight was reduced from 50 to 20 mg in that group. Example 2, at the highest dose, prolonged aPTT, PT, by 5-, and 3.9-fold, respectively.

[7] = target: T3, human tissue factor/factor VIIa complex (Homo sapiens, UniProt P08709); experiment: Tissue factor/factor VIIa inhibition, cleavage of Spectrozyme VIIa; format: biochemical; conditions: read-out: VIIa % inhib. @ 100 μM
T3 construct: 50 μL human factor VIIa (Enzyme Research Laboratories); purchased Enzyme Research Laboratories (factor VIIa); American Diagnostica (recombinant tissue factor)
Method: The ability of compounds to act as inhibitors of the catalytic activity of human tissue factor/factor VIIa complex is assessed by determination of that concentration of test substance that inhibits by 50% (IC50 the ability of a complex of human recombinant tissue factor/factor VIIa to cleave the chromogenic substrate Spectrozyme VIIa (CH3SO2-D-CHA-Arg-pNA*AcOH, American Diagnostica). Typically, 50 μL human factor VIIa (Enzyme Research Laboratories) is incubated for 10 minutes as a 1:1 mixture (5 nM final each) with 95 μL recombinant human tissue factor (American Diagnostica) in a modified HBSA buffer (10 mM Hepes, 5 mM CaCl2, 0.1% BSA, pH 8.0). Then, 5 μL of the test substance in DMSO (2% final) is added and incubated for 60 minutes at room temperature. Following preheating to 37° C. for 5 minutes, to this mixture is added 100 μL of Spectrozyme VIIa (500 μM final) in modified HBSA, and the velocity of Spectrozyme VIIa hydrolysis is determined at 37° C. by measuring the optical density at an OD405 nm every 10 seconds over 5 minutes using a ThermoMax® Kinetic Microplate Reader.

[8] = target: T4, human factor Xa (Homo sapiens, UniProt P00742); experiment: Factor Xa IC50, cleavage of chromogenic substrate S2765; format: biochemical
T4 construct: 145 μL human factor Xa (1 nM final, Enzyme Research Laboratories); purchased Enzyme Research Laboratories
Method: The ability of compounds to act as inhibitors of human factor Xa catalytic activity is assessed by determination of that concentration of test substance that inhibits by 50% (IC50) the ability of human factor Xa to cleave the chromogenic substrate S2765 (N-CBz-D-Arg-L-Gly-L-Arg-p-nitroanilide. 2HCl, DiaPharma). Typically, 145 μL human factor Xa (1 nM final, Enzyme Research Laboratories) in 10 mM HEPES, 150 mM NaCl, 0.1% BSA, pH 7.4 (HBSA buffer), and 5 μL of test substance in DMSO (2% final) are incubated for 60 minutes at room temperature. Following preheating to 37° C. for 5 minutes, to this mixture is added 100 μL of S2765 in HBSA buffer. The velocity of S2765 hydrolysis is determined at 37° C. by measuring the initial rate of change of the optical density at OD405 nm every 10 seconds for 5 minutes using a ThermoMax® Kinetic Microplate Reader.

[9] = infusion 2.5, 5 and 10 μg/kg/min
[10] = three doses, bolus + infusion 140 minutes

T3 sequence (P08709 213-466 limits assumed): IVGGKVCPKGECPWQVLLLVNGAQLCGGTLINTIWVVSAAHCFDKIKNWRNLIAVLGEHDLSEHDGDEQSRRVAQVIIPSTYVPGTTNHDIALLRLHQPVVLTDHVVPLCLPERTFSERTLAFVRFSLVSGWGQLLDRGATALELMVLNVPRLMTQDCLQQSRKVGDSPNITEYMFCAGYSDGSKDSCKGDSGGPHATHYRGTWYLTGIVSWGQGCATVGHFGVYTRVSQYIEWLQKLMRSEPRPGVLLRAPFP
T3 sequence (P08709 61-212 limits assumed): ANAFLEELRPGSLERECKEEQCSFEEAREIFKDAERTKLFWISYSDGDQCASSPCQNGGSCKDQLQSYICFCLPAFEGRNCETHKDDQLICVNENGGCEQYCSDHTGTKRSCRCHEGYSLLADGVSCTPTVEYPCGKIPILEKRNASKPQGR
T3 sequence (P13726 33-295 partner): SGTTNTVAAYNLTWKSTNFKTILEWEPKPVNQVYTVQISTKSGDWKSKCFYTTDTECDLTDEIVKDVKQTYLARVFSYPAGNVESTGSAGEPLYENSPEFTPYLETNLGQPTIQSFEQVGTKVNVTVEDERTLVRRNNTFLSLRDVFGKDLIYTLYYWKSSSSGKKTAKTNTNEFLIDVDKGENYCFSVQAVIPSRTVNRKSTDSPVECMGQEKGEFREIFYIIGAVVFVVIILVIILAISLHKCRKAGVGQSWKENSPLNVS
T4 sequence (P00742 235-488 limits assumed): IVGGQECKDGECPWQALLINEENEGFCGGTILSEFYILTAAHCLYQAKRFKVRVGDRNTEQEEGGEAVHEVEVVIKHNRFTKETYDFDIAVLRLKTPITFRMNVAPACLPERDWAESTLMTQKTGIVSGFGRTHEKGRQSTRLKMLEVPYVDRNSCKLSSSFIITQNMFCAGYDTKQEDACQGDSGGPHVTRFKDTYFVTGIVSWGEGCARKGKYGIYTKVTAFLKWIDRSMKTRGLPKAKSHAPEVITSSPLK
T4 sequence (P00742 41-179 limits assumed): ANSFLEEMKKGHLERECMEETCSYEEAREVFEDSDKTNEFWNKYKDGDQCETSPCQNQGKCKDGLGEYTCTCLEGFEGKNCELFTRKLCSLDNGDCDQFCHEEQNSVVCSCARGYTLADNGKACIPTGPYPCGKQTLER
T2 sequence (P00742 235-488 limits assumed): as the sequence (P00742 235-488 limits assumed) above
T2 sequence (P00742 41-179 limits assumed): as the sequence (P00742 41-179 limits assumed) above
T2 sequence (P12259 29-737 partner limits assumed): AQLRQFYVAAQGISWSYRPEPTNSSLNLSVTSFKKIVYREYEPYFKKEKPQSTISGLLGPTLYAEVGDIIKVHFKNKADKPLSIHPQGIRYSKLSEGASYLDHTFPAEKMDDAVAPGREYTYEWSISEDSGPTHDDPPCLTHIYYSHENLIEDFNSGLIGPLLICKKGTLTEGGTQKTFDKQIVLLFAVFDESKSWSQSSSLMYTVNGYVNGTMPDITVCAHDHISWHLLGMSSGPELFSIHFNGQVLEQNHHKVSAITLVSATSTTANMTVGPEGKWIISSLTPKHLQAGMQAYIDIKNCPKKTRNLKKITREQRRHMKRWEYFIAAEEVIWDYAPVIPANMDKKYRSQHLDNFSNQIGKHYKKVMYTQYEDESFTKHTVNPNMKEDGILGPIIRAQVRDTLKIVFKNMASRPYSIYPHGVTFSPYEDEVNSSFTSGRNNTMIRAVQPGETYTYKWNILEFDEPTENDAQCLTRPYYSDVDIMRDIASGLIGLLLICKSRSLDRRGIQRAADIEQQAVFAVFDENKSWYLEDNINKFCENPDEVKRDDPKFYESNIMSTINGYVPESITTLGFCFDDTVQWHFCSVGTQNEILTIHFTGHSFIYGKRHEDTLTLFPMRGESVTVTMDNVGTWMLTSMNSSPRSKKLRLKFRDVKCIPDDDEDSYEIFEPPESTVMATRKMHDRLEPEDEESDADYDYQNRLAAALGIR
T2 sequence (P12259 1574-2224 partner limits assumed): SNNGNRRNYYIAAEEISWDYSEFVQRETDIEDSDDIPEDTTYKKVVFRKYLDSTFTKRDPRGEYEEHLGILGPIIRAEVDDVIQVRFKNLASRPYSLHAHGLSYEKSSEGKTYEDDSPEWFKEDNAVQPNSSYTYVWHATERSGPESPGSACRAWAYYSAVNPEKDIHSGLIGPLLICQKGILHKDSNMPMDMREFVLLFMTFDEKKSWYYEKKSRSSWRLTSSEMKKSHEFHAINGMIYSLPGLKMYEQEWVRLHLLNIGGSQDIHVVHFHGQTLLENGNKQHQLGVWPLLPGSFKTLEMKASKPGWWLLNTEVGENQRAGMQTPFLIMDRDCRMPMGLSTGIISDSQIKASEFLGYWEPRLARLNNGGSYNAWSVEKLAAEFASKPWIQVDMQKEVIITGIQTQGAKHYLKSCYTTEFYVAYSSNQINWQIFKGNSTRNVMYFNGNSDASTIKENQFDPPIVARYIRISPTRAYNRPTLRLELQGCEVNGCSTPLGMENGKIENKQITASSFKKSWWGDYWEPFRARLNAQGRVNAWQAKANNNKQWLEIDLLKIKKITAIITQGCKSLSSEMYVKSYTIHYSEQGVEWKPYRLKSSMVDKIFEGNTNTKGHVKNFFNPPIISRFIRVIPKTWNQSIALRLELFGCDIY

C[C@@H]1CCC[C@H](C)N1CCCCCn1c(=O)c(-c2cc(C(=N)N)ccc2O)nc2ccccc21 [Example 2, 3-(4-5-[(2R,6S)-2,6-dimethyltetrahydro-1(2H)-pyridinyl]pentyl-3-oxo-3,4-dihydro-2-quinoxalinyl)-4-hydroxybenzenecarboximidamide]
IC50 [1]: 7020 nM | IC50 [2]: 1.5 nM | IC50 [3]: 2450 nM | prolongation of PT ([4]; highest dose): 1.75 fold | prolongation of aPTT ([4]; highest dose): 1.4 fold | time to occlusion (TTO) ([4]; highest dose 10 μg/kg/min infusion, both arteries and veins): ~240 min | net thrombus weight [artery] ([4]; highest dose 10 μg/kg/min, artery, control 50 mg): 18 mg | net thrombus weight [vein] ([4]; highest dose 10 μg/kg/min, vein, control 110 mg): 15 mg | effect on net thrombus weight [4, 9]: reduced the net thrombus weight | effect on time to occlusion [4, 9]: dose-dependently prolonged the time to occlusion | concentration which caused 2 fold prolongation of dPT [5]: 0.05 µM | fold increase in dPT ([5]; 0.1 μM): 3.2 fold | effect on dPT ([5]; over concentrations): concentration-dependently prolonged dPT | prolongation of PT ([6]; highest dose): 3.9 fold | prolongation of aPTT ([6]; highest dose): 5 fold | net thrombus weight ([6]; highest dose 480 μg/kg + 16 μg/kg/min iv, control 50 mg): 20 mg | time to occlusion (TTO) ([6]; highest dose 480 μg/kg + 16 μg/kg/min iv, control 17 minutes): 100 min | effect on net thrombus weight [6, 10]: reduced the net thrombus weight | effect on time to occlusion [6, 10]: dose-dependently prolonged the time to occlusion | inhibition at 100 µM [7]: 13% | IC50 [8]: 9 nM

C[C@@H]1CCC[C@H](C)N1CCCCCn1c(=O)c(-c2cccc(C(=N)N)c2)nc2ccccc21 [Example 1, 3-[3-(Amidino)phenyl]-1-{5-[(2R,6S)-2,6-dimethylhexahydro-1-pyridinyl]pentyl}-1,2-dihydro-2-quinoxalinone]
IC50 [1]: 2960 nM | IC50 [3]: 2030 nM | inhibition at 100 µM [7]: 16% | IC50 [8]: 65 nM
